Marks after values point to notes of the source that are not given here.

Data on four molecules can be found in patent US10265297B2 (Council of Scientific & Industrial Research, priority 2016, dated 2019).

The test system of data set [1] is ovariectomized Sprague Dawley rats. As to the kind of experiment: Ovariectomized (OVx) rats: trabecular microarchitecture of femur and uterine weight. It counts as in vivo. Particulars: for BV/TV / Po (tot) (Total porosity percent) / SMI / Tb.No / Tb.Pf (Trabecular pattern factor) / Tb.Sp: femur epiphysis. As to the method:
The study was conducted in accordance with current legislation on animal experiments [Institutional Animal Ethical Committee (IAEC)] at C.D.R.I. […] Sprague Dawley rats weighing ˜180-200 gm were either bilaterally ovariectomized (OVx) or exposed to a sham surgical procedure. All rats were individually housed at 21° C., in 12-h light:12-h dark cycles. All rats had excess to normal chow diet and water ad libitum. After OVx, the rats were left for 12 weeks to develop osteopenia. After 12 weeks, extract treatment in the form of gavage (50.0 mg and 100 mg/kg body weight), and iPTH 30 μg·kg^−1 three times a week was given daily. Equal numbers of OVx and sham operated rats served as the control, and were given vehicle (20% ethanol). The rats were weighed each week. At the end of 12 weeks, urine was to be collected for biochemical assessment therefore the rats were caged individually in plastic cages fitted with steel mesh for a total period of 48 h preceding autopsy and had free access to normal chow diet and water for the first 24 h initially for of acclimatization and then during the next 24 h, animals received only water ad libitum. After twenty-four hours of fasting urine samples were collected in fresh containers, centrifuged at 2000 rpm at room temperature and stored at […] until analyzed. Rats were then euthanized. At autopsy, blood samples were collected by cardiac puncture in tubes. Uteri were carefully excised, gently blotted, weighed, and fixed for histology and histomorphometry. About 5 mm pieces from the middle segment of each uterus were dehydrated in ascending grades of ethanol, cleared in xylene, and embedded in paraffin wax using standard procedures. Photomicrographs of sections were obtained using a Leica DC 300 camera and Leica IM50 Image Acquisition software fitted to a Leica DMLB microscope. Histomorphometric measurements were done using Leica Qwin-Semiautomatic image Analysis software. μCT (both 2-D and 3-D) determination of excised bones was carried out using the Sky Scan 1076 μCT scanner (Aartselaar, Belgium) using the cone-beam reconstruction software version 2.6 based on the Feldkamp algorithm (Skyscan).
Trabecular response to FSE treatment of OVx rats was quantified at the femur epiphysis. […] Efficacy of OVx was confirmed by studying uterine weight. […] OVx group had reduced uterine weight as compared with the ovary intact, sham group. […] E2 increased uterine weight in OVx rats equal to the sham group.

Data set [2] can be described thus: Oral pharmacokinetics in male Sprague Dawley rats. It counts as in vivo. The note with it: rat, serum, 250 mg/kg; for Vd/F: read-out: Vss/F.
In data set [3] the test system is calvarial osteoblasts. Nature of the data set: Mineralization (Alizarin Red-S) in calvarial osteoblasts. It counts as cell-based. Particulars: various concentration, 18 days, compared to untreated cells. As to the method: FIG. 5A-5C: Activity of the compound C003/K008 isolated from the extract was assessed by measuring ALP activity in calvarial osteoblast cells. At the end of the experiment, ALP activity was measured colorimetrically. […] (*p<0.05, **p<0.01 and ***p<0.001 when compared with control). Calvarial osteoblasts were treated with compound C003/K008 at various concentration for 18 days to induce mineralization. […] Values are expressed as mean±SEM. ***p<0.001 and *p<0.05 when compared with control (untreated cells).
Compound (2492/K008) was isolated from butanolic fraction and alkaline phosphatase activity and mineralization in calvarial osteoblast cells assessed with different concentrations of the test compound or vehicle for 48 hrs in growth medium supplemented with 10 mM β-glycerophosphate and 50 μg/ml ascorbic acid. At the end of incubation period, cells were washed with PBS and kept in −80° C. for 30 min and then at 37° C. for 30 min. ALP activity was measured using p-nitrophenylphosphate (PNPP) as substrate and absorbance was read at 405 nm. SE increased the alkaline phosphatase activity from doses ranging from […] as compared to the control with ˜2.0 fold increase in the ALP activity at 1 μM.

Data set [4] concerns drill-hole injury in femur of adult female Sprague Dawley rats. As to the kind of experiment: Drill hole model for fracture healing (micro-CT, calcein labeling, qPCR). It counts as in vivo. Particulars: 30 μg/kg s.c. injection. The method, then:
Drill-hole injury was created in the mid femur region 1 cm above the knee joint by inserting a drill hole of diameter 0.8 mm in the anterior portion of the diaphysis of the bilateral femurs. Treatment was started next day of injury and continued for 14 days. Each animal received intraperitoneal administration of fluorochrome calcein(20 mg/kg) 24 h before autopsy. After 14 days of treatment, animals were sacrificed and autopsied to collect their femurs for the measurement of bone micro-architectural parameters. Bones were embedded inacrylic material and […] sections were made using an Isomet BoneCutter (Buehler, Lake Bluff, Ill., USA) and photographs taken under confocal microscope LSM 510 Meta, Carl Zeiss, Maple Grove, Minn., USA) aided with appropriate filters. The intensity of calcein binding, was calculated using Carl Zeiss AM 4.2 image-analysis software.
(A) In vivo regeneration of bone to monitor local repair process was done using micro-CT after creation of the hole using on femur of 0.8 mm diameter. […] Modest mineralized calluses appeared at defect and intra-medulla region of treated groups. By day 14, extent of callus mineralization increased, in the intra-medulla region.
The model was made as described above and then treatment of extract and Formulated Spinacea Extraxt (FSE) was started at doses of 250 and 750 mg·kg^−1·day^−1 from the next day of injury and continued for 14 days. After 14 days of treatment as described above, animals were sacrificed and autopsied to collect their femurs for the measurement of bonemicro architectural parameters at the drill-hole site. Bones were embedded inacrylic material and […] sections were made using an Isomet BoneCutter (Buehler, Lake Bluff, Ill., USA) and photographs taken under confocal microscope LSM 510 Meta, Carl Zeiss, Maple Grove, Minn., USA) aided with appropriate filters. The intensity of calcein binding, which is an indicator of the amount of new mineral deposition, was calculated using Carl Zeiss AM 4.2 image-analysis software. […]

Take `C[C@]12CC[C@@H]3c4ccc(O)cc4CC[C@H]3[C@@H]1CC[C@@H]2O` [Compound E2]: in data set [1] (Ovx + E2 (0.1 mgkg^−1day^−1)), the Uteriewt worked out at 329.63 ± 30.44 mg, the BV/TV amounted to 15.97 ± 1.88 %, the “Po (tot) (Total porosity percent)” value is 85.24 ± 2.07% and the SMI came to 1.67 ± 0.04. Moreover, in data set [1] (Ovx + E2 (0.1 mgkg^−1day^−1)), the Tb.No is 1.61 ± 0.23** mm^−1, the “Tb.Pf (Trabecular pattern factor)” value is given as 6.22 ± 0.72 and the Tb.Sp was found to be 0.76 ± 0.1 mm.

In data set [2], `COc1c(-c2ccc(O)c(O)c2)oc2cc3c(c(O)c2c1=O)OCO3` [Compound K007, 5,3′,4′-trihydroxy-3-methoxy-6,7-methylenedioxy-flavone] had an AUC(0-t) of 39 ng·h/mL, a CL/F of 213 mL/min/kg, a Cmax of 7.6 ng/mL and an MRT of 3.4 h. For the same molecule, in data set [2], the time of peak concentration (Tmax) was 2 h and the Vd/F came out at 43.3 L/kg.

For `COc1c(O)cc2oc(-c3ccc(O)c(O)c3)c(OC)c(=O)c2c1O` [Compound K008, 5,7,3′,4′-tetrahydroxy-3,6-dimethoxy-flavone], in data set [2], the AUC(0-t) is 23.3 ng·h/mL, the CL/F is 23.3 mL/min/kg, the Cmax is 5 ng/mL and the MRT stood at 3.9 h. Moreover, in data set [2], the Tmax was 2 h and the Vd/F amounted to 5.6 L/kg. Moreover, in data set [3], the “formation of mineralized nodules (Alizarin Red-S)” value is “increased formation of mineralized nodules”.

Turning to “PTH: parathyroid hormone, standard marketed anabolic drug, injectable”, in data set [1] (Ovx + PTH (30 μg/kg bw)), the Uteriewt was 91.18 ± 3.84 mg, the BV/TV stood at 22.78 ± 1.76 %, the “Po (tot) (Total porosity percent)” value is listed as 76.79 ± 2.35 % and the SMI is listed as 1.26 ± 0.18. Further, in data set [1] (Ovx + PTH (30 μg/kg bw)), the Tb.No is given as 2.43 ± 0.19*** mm^−1, the “Tb.Pf (Trabecular pattern factor)” value amounted to 5.31 ± 0.68 and the Tb.Sp is reported as 0.63 ± 0.07 mm. In addition, in data set [4], the BV/TV was 60.3 ± 1.91 %, the Calcein intensity is listed as 15.3 ± .055 % and the “SMI (Index)” value is 0.65 ± 0.07.
